Values of other authors in patent US9421238B2 (priority 2013, dated 2016).
Like-named read-outs stand apart in the source and are kept apart here.

Settings: rat, CO-60 in liver

## N[C@@H](CCC(=O)N[C@@H](CS)C(=O)NCC(=O)O)C(=O)O [Plain glutathione, glutathione]
Intravenous administration
  removal of toxin: 64%
Oral administration
  removal of toxin: 0%
  toxin remained/remaining: 100%
